Our source for the IC50 values is patent US20210070748A1, “INHIBITORS OF BRUTONS TYROSINE KINASE” (Pharmacyclics LLC, priority 2015, published 2021).

By IC50 is commonly meant the midpoint of a concentration-inhibition curve.

Common to all, as to type: biochemical
The target of one assay is T1, TEC (Homo sapiens, UniProt P42680).
T1 sequence (P42680 1-631): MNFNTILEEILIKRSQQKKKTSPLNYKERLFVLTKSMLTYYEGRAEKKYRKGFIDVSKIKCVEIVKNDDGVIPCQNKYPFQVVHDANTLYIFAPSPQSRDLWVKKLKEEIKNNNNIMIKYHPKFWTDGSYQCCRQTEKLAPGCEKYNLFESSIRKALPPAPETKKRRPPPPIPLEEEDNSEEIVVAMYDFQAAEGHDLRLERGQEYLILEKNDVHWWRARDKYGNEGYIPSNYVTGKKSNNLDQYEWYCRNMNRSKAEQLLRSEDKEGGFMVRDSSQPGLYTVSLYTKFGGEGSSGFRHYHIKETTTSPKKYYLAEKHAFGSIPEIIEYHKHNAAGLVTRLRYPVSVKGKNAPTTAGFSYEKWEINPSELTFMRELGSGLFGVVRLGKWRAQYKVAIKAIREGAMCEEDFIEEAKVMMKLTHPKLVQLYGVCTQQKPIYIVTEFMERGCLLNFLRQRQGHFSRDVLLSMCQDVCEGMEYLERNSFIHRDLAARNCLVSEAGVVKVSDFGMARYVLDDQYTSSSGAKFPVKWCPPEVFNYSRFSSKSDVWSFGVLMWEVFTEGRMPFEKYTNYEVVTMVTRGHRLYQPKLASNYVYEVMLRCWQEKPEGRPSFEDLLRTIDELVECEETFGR
In words: Inhibition of a panel of kinases, in vitro HotSpot kinase assay: TEC. The conditions noted are these: D-compounds panel data; 1 μM ATP. Here is the method:
(§1) The degree of inhibition of a panel of kinases is determined using the in vitro HotSpot kinase assay (purified enzymes, ^33P-ATP, an appropriate substrate and 1 μM ATP).

For a further assay, the target named is T2, JAK3 (Homo sapiens, UniProt P52333).
T2 sequence (P52333 1-1124): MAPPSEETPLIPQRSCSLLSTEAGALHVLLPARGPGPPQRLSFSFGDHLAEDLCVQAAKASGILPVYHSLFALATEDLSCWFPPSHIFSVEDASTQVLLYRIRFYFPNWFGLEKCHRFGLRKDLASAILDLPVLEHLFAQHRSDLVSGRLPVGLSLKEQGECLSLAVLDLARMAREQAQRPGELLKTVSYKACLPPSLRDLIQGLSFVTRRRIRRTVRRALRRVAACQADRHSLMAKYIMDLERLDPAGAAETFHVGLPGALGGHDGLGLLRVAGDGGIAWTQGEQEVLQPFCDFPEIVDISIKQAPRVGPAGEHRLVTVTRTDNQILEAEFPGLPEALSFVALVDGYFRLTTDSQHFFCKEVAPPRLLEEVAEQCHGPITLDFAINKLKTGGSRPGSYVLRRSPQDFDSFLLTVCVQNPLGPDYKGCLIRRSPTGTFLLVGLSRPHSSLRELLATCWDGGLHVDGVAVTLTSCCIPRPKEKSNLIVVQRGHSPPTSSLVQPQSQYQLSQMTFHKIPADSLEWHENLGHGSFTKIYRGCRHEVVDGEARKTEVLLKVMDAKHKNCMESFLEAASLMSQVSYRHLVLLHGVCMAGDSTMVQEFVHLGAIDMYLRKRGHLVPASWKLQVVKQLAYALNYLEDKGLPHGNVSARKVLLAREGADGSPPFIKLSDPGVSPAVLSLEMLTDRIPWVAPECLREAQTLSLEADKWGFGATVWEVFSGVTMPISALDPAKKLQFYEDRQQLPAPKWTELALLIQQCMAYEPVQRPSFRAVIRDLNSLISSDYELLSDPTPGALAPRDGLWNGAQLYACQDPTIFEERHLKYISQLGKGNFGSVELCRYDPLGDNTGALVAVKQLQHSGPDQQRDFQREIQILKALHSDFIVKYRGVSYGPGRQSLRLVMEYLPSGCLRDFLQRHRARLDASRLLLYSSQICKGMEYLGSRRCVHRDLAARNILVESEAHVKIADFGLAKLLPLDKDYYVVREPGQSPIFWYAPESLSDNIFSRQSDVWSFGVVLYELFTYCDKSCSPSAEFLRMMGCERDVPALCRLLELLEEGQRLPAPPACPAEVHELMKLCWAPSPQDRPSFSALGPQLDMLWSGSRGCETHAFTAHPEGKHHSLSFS
In words: Inhibition of a panel of kinases, in vitro HotSpot kinase assay: JAK3. The conditions noted are these: D-compounds panel data; 1 μM ATP; read-out: IC50 JAK3.

For another assay, the target named is SRC (Homo sapiens, UniProt P12931). In words: Inhibition of a panel of kinases, in vitro HotSpot kinase assay: SRC. Particulars: D-compounds panel data; 1 μM ATP. Here is the method:
as §1

SMILES strings stand for the structures.

Sequence of SRC (P12931 whole entry): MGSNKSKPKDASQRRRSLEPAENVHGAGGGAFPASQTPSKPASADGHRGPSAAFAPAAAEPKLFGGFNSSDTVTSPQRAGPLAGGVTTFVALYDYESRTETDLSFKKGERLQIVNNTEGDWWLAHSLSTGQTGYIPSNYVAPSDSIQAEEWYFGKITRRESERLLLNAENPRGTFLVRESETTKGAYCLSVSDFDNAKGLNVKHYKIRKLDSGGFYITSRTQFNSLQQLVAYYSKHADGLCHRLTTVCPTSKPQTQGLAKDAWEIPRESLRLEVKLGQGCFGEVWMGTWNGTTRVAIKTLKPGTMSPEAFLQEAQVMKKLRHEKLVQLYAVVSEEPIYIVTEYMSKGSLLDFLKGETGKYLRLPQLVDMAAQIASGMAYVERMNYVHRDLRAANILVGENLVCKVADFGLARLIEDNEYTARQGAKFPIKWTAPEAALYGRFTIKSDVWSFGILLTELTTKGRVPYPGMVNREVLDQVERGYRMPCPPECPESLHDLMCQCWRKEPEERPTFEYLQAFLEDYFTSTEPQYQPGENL

In the case of `Cc1ccc(-c2cnc([C@H]3CCCN(c4cnc(C(N)=O)c(Nc5cc(C)ns5)n4)C3)[nH]2)cc1` [Example D-136, 3-[(3-methyl-1,2-thiazol-5-yl)amino]-5-[(3S)-3-[5-(4-methylphenyl)-1H-imidazol-2-yl]piperidin-1-yl]pyrazine-2-carboxamide], the results for the IC50 at TEC, at JAK3 and on SRC were 100 to 1000 nM, 1000 to 10000 nM and 100 to 1000 nM, respectively.
`Cc1cc(Nc2nc(N3CCC[C@@H](NC(=O)c4ccc(C(C)(C)O)cc4)[C@H]3C)cnc2C(N)=O)sn1` [Example D-159, 5-[(2R,3R)-3-[4-(2-hydroxypropan-2-yl)benzamido]-2-methylpiperidin-1-yl]-3-[(3-methyl-1,2-thiazol-5-yl)amino]pyrazine-2-carboxamide]: the figures for the IC50 on TEC, on JAK3 and at SRC were no more than 10 nM, 100 to 1000 nM and 10 to 100 nM, respectively.
On the same counts, the results for `C[C@@H]1[C@H](NC(=O)N(C)C)CCCN1c1cnc(C(N)=O)c(Nc2cc(C3CCOCC3)ns2)n1` [Example D-162, 5-[(2R,3R)-3-[(dimethylcarbamoyl)amino]-2-methylpiperidin-1-yl]-3-{[3-(oxan-4-yl)-1,2-thiazol-5-yl]amino}pyrazine-2-carboxamide] are no more than 10 nM, 1000 to 10000 nM and 10 to 100 nM.
The like results for `C[C@@H]1[C@H](NC(=O)c2ccc(C(C)(C)O)c(F)c2)CCCN1c1cnc(C(N)=O)c(Nc2cnn(C)c2)n1` [Example D-160, 5-[(2R,3R)-3-[3-fluoro-4-(2-hydroxypropan-2-yl)benzamido]-2-methylpiperidin-1-yl]-3-[(1-methyl-1H-pyrazol-4-yl)amino]pyrazine-2-carboxamide] were, in that order, no more than 10 nM, 100 to 1000 nM and 10 to 100 nM.
The like results for `CC(=O)NC(C)(C)c1ccc(C(=O)N[C@@H]2CCCN(c3cnc(C(N)=O)c(Nc4cnn(C)c4)n3)[C@@H]2C)cc1` [Example D-107, 5-[(2R,3R)-3-[4-(2-acetamidopropan-2-yl)benzamido]-2-methylpiperidin-1-yl]-3-[(1-methyl-1H-pyrazol-4-yl)amino]pyrazine-2-carboxamide] were, in that order, no more than 10 nM, 1000 to 10000 nM and 10 to 100 nM.
`C[C@H]1CC[C@@H](NC(=O)c2ccc(C3CC3)cc2)CN1c1cnc(C(N)=O)c(Nc2ccc(N3CCN(C)CC3)c(F)c2)n1` [Example D-150, 5-[(2S,5R)-5-(4-cyclopropylbenzamido)-2-methylpiperidin-1-yl]-3-{[3-fluoro-4-(4-methylpiperazin-1-yl)phenyl]amino}pyrazine-2-carboxamide]: the 50% inhibitory concentration (IC50) at TEC was no more than 10 nM; at JAK3 it was 1000 to 10000 nM; at SRC, 10 to 100 nM.
On to `C[C@@H]1[C@H](NC(=O)c2ccc(C3CC3)cc2F)CCCN1c1cnc(C(N)=O)c(Nc2ccc(CN3CCN(C)CC3)cc2)n1` [Example D-113, 5-[(2R,3R)-3-(4-cyclopropyl-2-fluorobenzamido)-2-methylpiperidin-1-yl]-3-({4-[(4-methylpiperazin-1-yl)methyl]phenyl}amino)pyrazine-2-carboxamide], for which the results for the IC50 against TEC, at JAK3 and at SRC were 10 to 100 nM, 100 to 1000 nM and 100 to 1000 nM, respectively.
As to `C[C@@H]1[C@H](NC(=O)N(C)C)CCCN1c1cnc(C(N)=O)c(Nc2cnn(C)c2)n1` [Example D-128, 5-[(2R,3R)-3-[(dimethylcarbamoyl)amino]-2-methylpiperidin-1-yl]-3-[(1-methyl-1H-pyrazol-4-yl)amino]pyrazine-2-carboxamide], the IC50 against TEC fell in the range of 10 to 100 nM; on JAK3, 1000 to 10000 nM; against SRC it was 100 to 1000 nM.
The like results for `C[C@@H]1[C@H](NC(=O)N(C)C)CCCN1c1cnc(C(N)=O)c(Nc2ccc(CN3CCN(C)CC3)cc2)c1` [Example D-120, 5-[(2R,3R)-3-[(dimethylcarbamoyl)amino]-2-methylpiperidin-1-yl]-3-({4-[(4-methylpiperazin-1-yl)methyl]phenyl}amino)pyridine-2-carboxamide] were, in that order, greater than 10000 nM, 1000 to 10000 nM and 1000 to 10000 nM.
On to `C[C@@H]1[C@H](NC(=O)c2ccc(C3CC3)cc2)CCCN1c1cnc(C(N)=O)c(Nc2ccc(N3CCC(F)(F)CC3)cc2)n1` [Example D-96, 5-[(2R,3R)-3-(4-cyclopropylbenzamido)-2-methylpiperidin-1-yl]-3-{[4-(4,4-difluoropiperidin-1-yl)phenyl]amino}pyrazine-2-carboxamide], for which the results for the IC50 at TEC, at JAK3 and against SRC were 10 to 100 nM, 1000 to 10000 nM and greater than 10000 nM, respectively.
With `CC(C)N1CCN(c2ccc(Nc3nc(N4CCC[C@@H](NC(=O)c5ccc(C6CC6)cc5F)[C@H]4C)cnc3C(N)=O)cc2)CC1` [Example D-7, 5-[(2R,3R)-3-(4-cyclopropyl-2-fluorobenzamido)-2-methylpiperidin-1-yl]-3-({4-[4-(propan-2-yl)piperazin-1-yl]phenyl}amino)pyrazine-2-carboxamide], the IC50 lay within 10 to 100 nM against TEC, 1000 to 10000 nM on JAK3 and 10 to 100 nM against SRC.
For `Cc1cc(Nc2nc(N3CCC[C@@H](NC(=O)c4ccc(C(C)(C)O)cc4)C3)cnc2C(N)=O)sn1` [Example D-158, 5-[(3R)-3-[4-(2-hydroxypropan-2-yl)benzamido]piperidin-1-yl]-3-[(3-methyl-1,2-thiazol-5-yl)amino]pyrazine-2-carboxamide], the IC50 lay in the range of 10 to 100 nM on TEC, 1000 to 10000 nM on JAK3 and 100 to 1000 nM on SRC.
Take `C[C@@H]1[C@H](NC(=O)c2ccc(C3CC3)cc2F)CCCN1c1cnc(C(N)=O)c(Nc2ccc(CN3CCN(C)CC3)cn2)n1` [Example D-132, 5-[(2R,3R)-3-(4-cyclopropyl-2-fluorobenzamido)-2-methylpiperidin-1-yl]-3-({5-[(4-methylpiperazin-1-yl)methyl]pyridin-2-yl}amino)pyrazine-2-carboxamide]: the IC50 against TEC is 1000 to 10000 nM; at JAK3, greater than 10000 nM; against SRC, greater than 10000 nM.
Regarding `C[C@@H]1[C@H](NC(=O)c2ccc(C3CC3)cc2)CCCN1c1cnc(C(N)=O)c(Nc2ccc(OC3CCN(C4CCCC4)CC3)cc2)n1` [Example D-101, 3-({4-[(1-cyclopentylpiperidin-4-yl)oxy]phenyl}amino)-5-[(2R,3R)-3-(4-cyclopropylbenzamido)-2-methylpiperidin-1-yl]pyrazine-2-carboxamide], the results for the IC50 against TEC, on JAK3 and against SRC were no more than 10 nM, 1000 to 10000 nM and 10 to 100 nM, respectively.
The like results for `CC(C)n1cc(Nc2nc(N3CCC[C@@H](NC(=O)c4ccc(C5CC5)cc4F)[C@H]3C)cnc2C(N)=O)cn1` [Example D-123, 5-[(2R,3R)-3-(4-cyclopropyl-2-fluorobenzamido)-2-methylpiperidin-1-yl]-3-{[1-(propan-2-yl)-1H-pyrazol-4-yl]amino}pyrazine-2-carboxamide] were, in that order, 10 to 100 nM, greater than 10000 nM and 100 to 1000 nM.
The like results for `C[C@@H]1[C@H](NC(=O)c2ccc(C3CC3)cc2F)CCCN1c1cnc(C(N)=O)c(Nc2ccc(N3CCN(C)CC3)cc2)c1` [Example D-126, 5-[(2R,3R)-3-(4-cyclopropyl-2-fluorobenzamido)-2-methylpiperidin-1-yl]-3-{[4-(4-methylpiperazin-1-yl)phenyl]amino}pyridine-2-carboxamide] were, in that order, 1000 to 10000 nM, greater than 10000 nM and 100 to 1000 nM.
